Test results reported in ChEMBL document CHEMBL1212772 (2010).
Converted amounts (≈) assume the structure as drawn.

Assays:
Format in all cases: functional
Escherichia coli [1] = assay: Antimicrobial activity against wild type Escherichia coli ATCC 25922 deficient in beta-lactamase assessed as inhibition of growth by broth dilution method
Klebsiella pneumoniae [2] = assay: Antimicrobial activity against Klebsiella pneumoniae OC 4238 overexpressing beta-lactamase SHV-1 assessed as inhibition of growth by broth dilution method
Pseudomonas aeruginosa [3] = assay: Antimicrobial activity against Pseudomonas aeruginosa OC 12115 expressing beta-lactamase SPM-1 and containing Carbapenemase assessed as inhibition of growth by broth dilution method
Acinetobacter baumannii [4] = assay: Antimicrobial activity against wild type Acinetobacter baumannii OC 16708 deficient in beta-lactamase assessed as inhibition of growth by broth dilution method
Klebsiella pneumoniae [5] = assay: Antimicrobial activity against Klebsiella pneumoniae OC 4094 expressing extended-spectrum Beta-lactamase TEM-26 assessed as inhibition of growth by broth dilution method
Pseudomonas aeruginosa [6] = assay: Antimicrobial activity against Pseudomonas aeruginosa OC 13996 expressing beta-lactamase IMP-1 and containing Carbapenemase assessed as inhibition of growth by broth dilution method
Klebsiella pneumoniae [7] = assay: Antimicrobial activity against wild type Klebsiella pneumoniae OC 15263 expressing beta-lactamase SHV-1 assessed as inhibition of growth by broth dilution method
Klebsiella oxytoca = assay: Antimicrobial activity against wild type Klebsiella oxytoca OC 4076 expressing Beta-lactamase K1 assessed as inhibition of growth by broth dilution method
Escherichia coli [8] = assay: Antimicrobial activity against Escherichia coli DH5-alpha expressing beta-lactamase TEM-1 assessed as inhibition of growth by broth dilution method
Escherichia coli [9] = assay: Antimicrobial activity against Escherichia coli OC 6697 expressing beta-lactamase CMY-2 and containing plasmid AmpC assessed as inhibition of growth by broth dilution method
Klebsiella pneumoniae [10] = assay: Antimicrobial activity against Klebsiella pneumoniae OC 5367 expressing beta-lactamase KPC-2 and containing Carbapenemase assessed as inhibition of growth by broth dilution method
Serratia marcescens [11] = assay: Antimicrobial activity against wild type Serratia marcescens OC 7555 deficient in beta-lactamase assessed as inhibition of growth by broth dilution method
Pseudomonas aeruginosa [12] = assay: Antimicrobial activity against Pseudomonas aeruginosa OC 7052 expressing beta-lactamase VIM-2 and containing Carbapenemase assessed as inhibition of growth by broth dilution method
Escherichia coli [13] = assay: Antimicrobial activity against Escherichia coli OC 11732 expressing extended-spectrum beta-lactamase CTX-M-15 assessed as inhibition of growth by broth dilution method
Pseudomonas aeruginosa [14] = assay: Antimicrobial activity against Pseudomonas aeruginosa OC 4352 overexpressing beta-lactamase AmpC assessed as inhibition of growth by broth dilution method
Pseudomonas aeruginosa [15] = assay: Antimicrobial activity against wild type Pseudomonas aeruginosa ATCC 27853 expressing beta-lactamase AmpC assessed as inhibition of growth by broth dilution method
Enterobacter cloacae = assay: Antimicrobial activity against Enterobacter cloacae OC 4080 overexpressing beta-lactamase AmpC assessed as inhibition of growth by broth dilution method
Acinetobacter baumannii [16] = assay: Antimicrobial activity against Acinetobacter baumannii OC 11738 expressing beta-lactamase OXA-23 and containing Carbapenemase assessed as inhibition of growth by broth dilution method
Serratia marcescens [17] = assay: Antimicrobial activity against wild type Serratia marcescens OC 7554 expressing beta-lactamase SME-3 and containing Carbapenemase assessed as inhibition of growth by broth dilution method
Pseudomonas aeruginosa [18] = assay: Antimicrobial activity against Pseudomonas aeruginosa OC 4083 expressing beta-lactamase OXA-10 and containing Oxacillinase assessed as inhibition of growth by broth dilution method

Row | SMILES | MIC (Escherichia coli [1]) [µg/mL] | MIC (Klebsiella pneumoniae [2]) [µg/mL] | MIC (Pseudomonas aeruginosa [3]) [µg/mL] | MIC (Acinetobacter baumannii [4]) [µg/mL] | MIC (Klebsiella pneumoniae [5]) [µg/mL] | MIC (Pseudomonas aeruginosa [6]) [µg/mL] | MIC (Klebsiella pneumoniae [7]) [µg/mL] | MIC (Klebsiella oxytoca) [µg/mL] | MIC (Escherichia coli [8]) [µg/mL] | MIC (Escherichia coli [9]) [µg/mL] | MIC (Klebsiella pneumoniae [10]) [µg/mL] | MIC (Serratia marcescens [11]) [µg/mL] | MIC (Pseudomonas aeruginosa [12]) [µg/mL] | MIC (Escherichia coli [13]) [µg/mL] | MIC (Pseudomonas aeruginosa [14]) [µg/mL] | MIC (Pseudomonas aeruginosa [15]) [µg/mL] | MIC (Enterobacter cloacae) [µg/mL] | MIC (Acinetobacter baumannii [16]) [µg/mL] | MIC (Serratia marcescens [17]) [µg/mL] | MIC (Pseudomonas aeruginosa [18]) [µg/mL]
1 | CC(C)(O/N=C(\C(=O)N[C@@H]1C(=O)N2C(C(=O)[O-])=C(C[n+]3ccccc3)CS[C@H]12)c1csc(N)n1)C(=O)O [CEFTAZIDIME] | 0.25 (≈ 0.457 µM) | 2 (≈ 3.66 µM) | > 256 | 4 (≈ 7.32 µM) | > 256 | > 256 | 0.12 (≈ 0.22 µM) | 1 (≈ 1.83 µM) | 0.5 (≈ 0.915 µM) | > 128 | 32 (≈ 58.5 µM) | 0.5 (≈ 0.915 µM) | 64 (≈ 117 µM) | 32 (≈ 58.5 µM) | 32 (≈ 58.5 µM) | 2 (≈ 3.66 µM) | 32 (≈ 58.5 µM) | > 256 | 0.5 (≈ 0.915 µM) | > 4
2 | C[C@@H](O)[C@H]1C(=O)N2C(C(=O)O)=C(SCCNC=N)C[C@H]12 [IMIPENEM ANHYDROUS] | – | 0.25 (≈ 0.835 µM) | > 256 | 0.25 (≈ 0.835 µM) | 0.5 (≈ 1.67 µM) | > 256 | 0.5 (≈ 1.67 µM) | 0.25 (≈ 0.835 µM) | – | 0.5 (≈ 1.67 µM) | 16 (≈ 53.4 µM) | 0.25 (≈ 0.835 µM) | 64 (≈ 214 µM) | 0.25 (≈ 0.835 µM) | 2 (≈ 6.68 µM) | 2 (≈ 6.68 µM) | 1 (≈ 3.34 µM) | 64 (≈ 214 µM) | > 256 | 1 (≈ 3.34 µM)
3 | C[C@@H](O)[C@H]1C(=O)N2C(C(=O)O)=C(S[C@@H]3CN[C@H](CNS(N)(=O)=O)C3)[C@H](C)[C@H]12 [DORIPENEM] | 0.03 (≈ 0.0713 µM) | 0.06 (≈ 0.143 µM) | > 256 | 0.25 (≈ 0.595 µM) | 0.12 (≈ 0.285 µM) | > 256 | 0.06 (≈ 0.143 µM) | 0.06 (≈ 0.143 µM) | 0.06 (≈ 0.143 µM) | 0.06 (≈ 0.143 µM) | 8 (≈ 19 µM) | 0.06 (≈ 0.143 µM) | 32 (≈ 76.1 µM) | 0.06 (≈ 0.143 µM) | 0.5 (≈ 1.19 µM) | 0.5 (≈ 1.19 µM) | 0.25 (≈ 0.595 µM) | 32 (≈ 76.1 µM) | 128 (≈ 304 µM) | 2 (≈ 4.76 µM)
4 | C[C@@H](O)[C@H]1C(=O)N2C(C(=O)O)=C(S[C@@H]3CN[C@H](C(=O)N(C)C)C3)[C@H](C)[C@H]12 [MEROPENEM] | 0.03 (≈ 0.0782 µM) | 0.03 (≈ 0.0782 µM) | > 256 | 0.25 (≈ 0.652 µM) | 0.06 (≈ 0.156 µM) | > 256 | 0.03 (≈ 0.0782 µM) | 0.06 (≈ 0.156 µM) | 0.03 (≈ 0.0782 µM) | 0.06 (≈ 0.156 µM) | – | 0.03 (≈ 0.0782 µM) | 32 (≈ 83.4 µM) | 0.03 (≈ 0.0782 µM) | 0.5 (≈ 1.3 µM) | 0.5 (≈ 1.3 µM) | 0.25 (≈ 0.652 µM) | 64 (≈ 167 µM) | 128 (≈ 334 µM) | 2 (≈ 5.22 µM)
